Laboratory results published in publication PMC10700596 (Nature Communications, 2023).

Legend:
EP4R [1] = target: T1, EP4R (Homo sapiens, UniProt P35408); test: biochemical; format: binding; conditions: for inhibition at 10 µM: read-out: % displacement of 3HPGE2 at 10 µM, 10 µM compound vs 10 nM 3H-PGE2; for % displacement of 3HPGE2 at 10 µM: 10 µM compound vs 10 nM 3H-PGE2
T1 construct: Tango fusion cassette (only 'tango' is printed); expressed in transfected cells; host or cells: HTLA cells (tTA-dependent luciferase reporter, β-arrestin2-TEV fusion)
T1 sequence (P35408 whole entry, the tested form may be a part): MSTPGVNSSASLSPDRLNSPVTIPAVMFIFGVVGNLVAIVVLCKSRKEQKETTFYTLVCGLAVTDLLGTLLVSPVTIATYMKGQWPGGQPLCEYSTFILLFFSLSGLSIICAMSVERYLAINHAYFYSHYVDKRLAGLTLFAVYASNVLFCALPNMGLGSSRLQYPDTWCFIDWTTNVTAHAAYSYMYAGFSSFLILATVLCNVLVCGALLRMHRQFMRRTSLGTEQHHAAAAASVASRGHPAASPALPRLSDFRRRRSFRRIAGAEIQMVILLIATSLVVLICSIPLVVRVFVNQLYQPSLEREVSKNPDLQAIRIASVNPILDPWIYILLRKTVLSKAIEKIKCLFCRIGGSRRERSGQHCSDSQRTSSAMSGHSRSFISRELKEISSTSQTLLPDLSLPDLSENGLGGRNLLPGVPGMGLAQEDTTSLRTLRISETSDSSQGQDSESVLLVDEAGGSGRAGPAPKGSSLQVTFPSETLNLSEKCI

EP4R [2] = target: T1, EP4R; test: PRESTO-Tango β-arrestin2 recruitment assay; format: cell-based; conditions: for IC50: EC80 of PGE2; for Ki: PRESTO-Tango Ki* (nM)
[3] = PRESTO-Tango IC50 (nM), antagonist mode

O=C(O)C1(n2cc(Cc3ccc(F)cc3F)cn2)CCC(c2ccccc2)CC1 (stereo not shown) [Compound 1, OC(=O)C1(CCC(CC1)C=2C=CC=CC2)N3C=C(CC=4C=CC(F)=CC4F)C=N3]
inhibition at 10 µM (EP4R [1]): -28.7%

CCc1ncc(CN(CC(=O)O)C(=O)OCc2cccnc2)s1 [Compound 2, CCC1=NC=C(CN(CC(=O)O)C(=O)OCC=2C=CC=NC2)S1]
inhibition at 10 µM (EP4R [1]): -23.1%

CC1CC(C(=O)O)CN(C(=O)C2(c3cccc(C(F)(F)F)c3)CC2)C1 (stereo not shown) [Compound 3, CC1CC(CN(C1)C(=O)C2(CC2)C=3C=CC=C(C3)C(F)(F)F)C(=O)O]
inhibition at 10 µM (EP4R [1]): -22.5%

O=C(NC1CC(C(=O)O)C1)N[C@@H]1CCC[C@@H]1n1cccn1 (stereo partly shown) [Compound 4, OC(=O)C1CC(C1)NC(=O)N[C@@H]2CCC[C@@H]2N3C=CC=N3]
inhibition at 10 µM (EP4R [1]): -21.9%

O=C(O)CCc1cccc(NC(=O)c2c(C(F)(F)F)nc3n2CCCC3)c1 [Compound 5, OC(=O)CCC=1C=CC=C(NC(=O)C2=C(N=C3CCCCN23)C(F)(F)F)C1]
inhibition at 10 µM (EP4R [1]): -19%

NC(=O)c1cc(C(=O)Nc2ccc(CC(=O)O)cc2)nn1-c1ccccc1 [Compound 6, NC(=O)C1=CC(=NN1C=2C=CC=CC2)C(=O)NC=3C=CC(CC(=O)O)=CC3]
inhibition at 10 µM (EP4R [1]): -18.8%

CC1(COC(=O)c2ccc(NS(C)(=O)=O)nc2)CC1(F)Cl (stereo not shown) [Compound 7, CC1(COC(=O)C=2C=CC(NS(=O)(=O)C)=NC2)CC1(F)Cl]
inhibition at 10 µM (EP4R [1]): -18.4%

CN(c1nc2cccc(F)c2s1)[C@H]1C[C@@H](C(=O)O)C1 [Compound 8, CN([C@H]1C[C@H](C1)C(=O)O)C2=NC=3C=CC=C(F)C3S2]
inhibition at 10 µM (EP4R [1]): -18.4%

CC(CN(C)c1nc(C(F)(F)F)cs1)C(=O)O (stereo not shown) [Compound 9, CC(CN(C)C1=NC(=CS1)C(F)(F)F)C(=O)O]
inhibition at 10 µM (EP4R [1]): -18.1%

COc1ccc(Cl)cc1C(Nc1ncc(C(=O)O)s1)c1ccccc1 (stereo not shown) [Compound 10, COC=1C=CC(Cl)=CC1C(NC2=NC=C(S2)C(=O)O)C=3C=CC=CC3]
inhibition at 10 µM (EP4R [1]): -17.8%

Cc1ccc(-n2c(SCc3nnn[nH]3)nc3ccccc3c2=O)cc1 [Compound 11, CC=1C=CC(=CC1)N2C(SCC3=NN=NN3)=NC=4C=CC=CC4C2=O]
inhibition at 10 µM (EP4R [1]): -17.6%

O=C(O)c1c[nH]c2c(Cl)cc(-c3ccc4ccccc4c3F)cc2c1=O [Compound 12, OC(=O)C1=CNC=2C(Cl)=CC(=CC2C1=O)C=3C=CC=4C=CC=CC4C3F]
inhibition at 10 µM (EP4R [1]): -17.1%

O=C(NCc1cc(Cl)cc2c1OCC2)c1cc2sc(C(=O)O)cc2[nH]1 [Compound 13, OC(=O)C1=CC=2NC(=CC2S1)C(=O)NCC=3C=C(Cl)C=C4CCOC43]
inhibition at 10 µM (EP4R [1]): -16.5%

CC1(C(=O)O)CCN(C(=O)C(O)c2ccc(Cl)c(Br)c2)C1 (stereo not shown) [Compound 14, CC1(CCN(C1)C(=O)C(O)C=2C=CC(Cl)=C(Br)C2)C(=O)O]
inhibition at 10 µM (EP4R [1]): -14.7%

O=C(O)CCC(Cc1ccccc1)NS(=O)(=O)c1csc2ccccc12 (stereo not shown) [Compound 15, OC(=O)CCC(CC=1C=CC=CC1)NS(=O)(=O)C2=CSC=3C=CC=CC23]
inhibition at 10 µM (EP4R [1]): -14.5%

CN(Cc1nccn1C1CC1)c1ncnc2[nH]c(C(=O)O)cc12 [Compound 16, CN(CC1=NC=CN1C2CC2)C=3N=CN=C4NC(=CC34)C(=O)O]
inhibition at 10 µM (EP4R [1]): -14.5%

CC(CN(C(=O)c1ccn(-c2ccccc2)n1)C1CC1)C(=O)O (stereo not shown) [Compound 17, CC(CN(C1CC1)C(=O)C=2C=CN(N2)C=3C=CC=CC3)C(=O)O]
inhibition at 10 µM (EP4R [1]): -14%

O=C(O)CC[C@H]1C[C@@H](NC(=O)C(O)c2ccc(Cl)cc2Cl)C1 (stereo partly shown) [Compound 18, OC(C(=O)N[C@H]1C[C@@H](CCC(=O)O)C1)C=2C=CC(Cl)=CC2Cl]
inhibition at 10 µM (EP4R [1]): -13.7%

CC(CN(C(=O)CCc1ccc2ccccc2c1)C1CC1)C(=O)O (stereo not shown) [Compound 19, CC(CN(C1CC1)C(=O)CCC=2C=CC=3C=CC=CC3C2)C(=O)O]
inhibition at 10 µM (EP4R [1]): -13.2%

c1ccc(-c2nc(SCc3nnn[nH]3)oc2-c2ccccc2)cc1 [Compound 20, C(SC1=NC(=C(O1)C=2C=CC=CC2)C=3C=CC=CC3)C4=NN=NN4]
inhibition at 10 µM (EP4R [1]): -12.7%

O=C(O)CCN(Cc1ccccc1)C(=O)CC1(C(F)(F)F)CC1 [Compound 21, OC(=O)CCN(CC=1C=CC=CC1)C(=O)CC2(CC2)C(F)(F)F]
inhibition at 10 µM (EP4R [1]): -12.3%

COc1ccc(-c2cc(CS(=O)(=O)c3nnc(C)[nH]3)on2)cc1 [Compound 22, COC=1C=CC(=CC1)C=2C=C(CS(=O)(=O)C3=NN=C(C)N3)ON2]
inhibition at 10 µM (EP4R [1]): -11.6%

CN(c1cccc(CC(=O)O)c1)S(=O)(=O)CC1Cc2ccccc2C1 [Compound 23, CN(C=1C=CC=C(CC(=O)O)C1)S(=O)(=O)CC2CC=3C=CC=CC3C2]
inhibition at 10 µM (EP4R [1]): -11.1%

CC(CN(C(=O)c1cc2c(C(F)F)nn(C)c2s1)C1CC1)C(=O)O (stereo not shown) [Compound 24, CC(CN(C1CC1)C(=O)C2=CC=3C(=NN(C)C3S2)C(F)F)C(=O)O]
inhibition at 10 µM (EP4R [1]): -10.7%

COC(C(=O)N(C1CC1)C(C)C(=O)O)c1cnn(C)c1 (stereo not shown) [Compound 25, COC(C(=O)N(C(C)C(=O)O)C1CC1)C=2C=NN(C)C2]
inhibition at 10 µM (EP4R [1]): -10.6%

O=C(O)c1cc2c(s1)CCCN(C(=O)C1CC13CCc1ccccc13)C2 (stereo not shown) [Compound 26, OC(=O)C1=CC=2CN(CCCC2S1)C(=O)C3CC43CCC=5C=CC=CC54]
inhibition at 10 µM (EP4R [1]): -10.6%

O=C(O)c1cc(NS(=O)(=O)c2cnc3ccsc3c2)ccc1O [Compound 27, OC(=O)C=1C=C(NS(=O)(=O)C=2C=NC=3C=CSC3C2)C=CC1O]
inhibition at 10 µM (EP4R [1]): -10.4%

O=C(NC1CCCC1C(=O)O)C(Sc1ccc(F)cc1)c1ccccc1 (stereo not shown) [Compound 28, OC(=O)C1CCCC1NC(=O)C(SC=2C=CC(F)=CC2)C=3C=CC=CC3]
inhibition at 10 µM (EP4R [1]): -10.3%

O=C(O)C(NS(=O)(=O)CCc1cccc(Cl)c1)C(O)c1ccccc1 (stereo not shown) [Compound 29, OC(C(NS(=O)(=O)CCC=1C=CC=C(Cl)C1)C(=O)O)C=2C=CC=CC2]
inhibition at 10 µM (EP4R [1]): -10.2%

O=C(O)c1ccc(C2CCCN2S(=O)(=O)c2ccccc2-c2ccno2)s1 (stereo not shown) [Compound 30, OC(=O)C1=CC=C(S1)C2CCCN2S(=O)(=O)C=3C=CC=CC3C4=CC=NO4]
inhibition at 10 µM (EP4R [1]): -10.1%

O=C(O)[C@H]1C[C@@H](C(=O)N(Cc2ccsc2)c2ccccc2)C1 [Compound 31, OC(=O)[C@H]1C[C@H](C1)C(=O)N(CC=2C=CSC2)C=3C=CC=CC3]
% displacement of 3HPGE2 at 10 µM (EP4R [1]): -9.4%

O=C(Nc1cccc(-n2nn[nH]c2=O)c1)C1(c2ccccn2)CC1 [Compound 32, O=C(NC=1C=CC=C(C1)N2N=NNC2=O)C3(CC3)C=4C=CC=CN4]
inhibition at 10 µM (EP4R [1]): -8.5%

O=C(O)[C@H]1C[C@@H](C(=O)N(Cc2ccsc2)c2ccccc2)C1 [Compound 33, OC(=O)[C@H]1C[C@H](C1)C(=O)N(CC=2C=CSC2)C=3C=CC=CC3]
% displacement of 3HPGE2 at 10 µM (EP4R [1]): -8.1%

CC(NC(=O)C1CC2(CC(C(=O)O)C2)C1)c1ccc(C(F)(F)F)s1 (stereo not shown) [Compound 34, CC(NC(=O)C1CC2(CC(C2)C(=O)O)C1)C3=CC=C(S3)C(F)(F)F]
inhibition at 10 µM (EP4R [1]): -6.1%

CN(C(=O)c1nn(-c2ccccc2)c2c1CCC2)C1CCCC(C(=O)O)CC1 (stereo not shown) [Compound 131, CN(C1CCCC(CC1)C(=O)O)C(=O)C2=NN(C=3CCCC23)C=4C=CC=CC4]
IC50 (EP4R [2]; [3]): 1880 nM
Ki (EP4R [2]): 376 nM

Cc1cc(C(=O)N(C)C2CCCC(C(=O)O)CC2)c(C)n1-c1ccccc1 (stereo not shown) [Compound 132, CN(C1CCCC(CC1)C(=O)O)C(=O)C=2C=C(C)N(C2C)C=3C=CC=CC3]
IC50 (EP4R [2]; PRESTO-Tango -logIC50, antagonist mode): 23400 nM
IC50 (EP4R [2]; [3]): > 10000 nM

O=C(O)C1CCC2(CC1)CC(Nc1ncnc3[nH]c4ncccc4c13)C2 (stereo not shown) [Compound 133, OC(=O)C1CCC2(CC(C2)NC=3N=CN=C4NC=5N=CC=CC5C34)CC1]
IC50 (EP4R [2]; [3]): 1090 nM
Ki (EP4R [2]; calculated using the Cheng Prusoff equation): 218 nM
